Key:
Hb [1] = molecular target: Hb (Homo sapiens, UniProt P68871+P69905); assay: In vitro time-dependent Hb oxygen equilibrium study using normal whole blood; settings: 2 mM; normal whole blood 30% hct; 37° C.; 1, 4 and 24 hr
α- or β-globin chains = molecular target: T1, α- or β-globin chains (Homo sapiens, UniProt P68871+P69905, E7V); assay: Reversed-phase HPLC of hemolysates for binding to α- or β-globin chains; assay type: cell-based; settings: reverse-phase HPLC; 2 mM and/or 5 mM; intact SS cells
T1 construct: Leftover blood samples from patients with homozygous SS were obtained and utilized; from tissue; host or cells: blood (red blood cells) of patients with homozygous SS
Description: (§1) Experimental Procedure: The MMA series of compounds (MMA-202, MMA-204, and MMA-405) and the positive control vanillin were studied for their abilities to inhibit hypoxia-induced RBC sickling (RBC morphology study), increase Hb oxygen, and/or modify Hb (adduct formation) as previously published.^31,33 Briefly, homozygous SS blood (hematocrit: 20%) suspensions were incubated under air in the absence or presence of 2 and/or 5 mM concentration of test compounds at 37° C. for 1 hr. Following, the suspensions were incubated under hypoxic condition (2.5% oxygen) at 37° C. for 2 hr. Aliquot samples were fixed with 2% glutaraldehyde solution without exposure to air, and then subjected to microscopic morphological analysis. The residual samples were washed in phosphate-buffered saline, and hemolyzed in hypotonic lysis buffer for the Hb oxygen equilibrium and Hb adduct experiments. […] Another aliquot from the lysate was also subjected to Hb adduct formation study using cation-exchange HPLC (Hitachi D-7000 Series, Hitachi Instruments, Inc., San Jose, Calif.) with a weak cation-exchange column (Poly CAT A: 30 mm×4.6 mm, Poly LC, Inc., Columbia, Md.). To determine the binding of the MMA compounds to either α- or β-globin chains, the hemolysates were subjected to reversed-phase (RP) HPLC on a Hitachi D-7000 HSM Series, using a Jupiter 5 μm C-4 50×4.6 mm column, (Phenomenex®, Torrence, Calif.) and a gradient from 20% to 60% acetonitrile in 0.3% trifluoroacetic acid in 15 minutes, with UV detection at 215 nm.

intact SS cells = assay: Antisickling study (RBC morphology) under hypoxia with homozygous SS blood; assay type: cell-based, human; settings: SS blood hematocrit 20%, 2.5% oxygen, 37° C., 2 hr
Description: (§2) In vitro Hemoglobin Modification, Oxygen Equilibrium and Antisickling Studies Using Human homozygous Sickle cell (SS) Blood
(§3) Materials and General Procedure: Leftover blood samples from patients with homozygous SS were obtained and utilized, based on an approved IRB protocol at the Children's Hospital of Philadelphia, with informed consent.
as §1, with “Following,” for “Experimental Procedure: The MMA series of compounds (MMA-202, MMA-204, and MMA-405) and the positive control vanillin were studied for their abilities to inhibit hypoxia-induced RBC sickling (RBC morphology study), increase Hb oxygen, and/or modify Hb (adduct formation) as previously published.^31,33 Briefly, homozygous SS blood (hematocrit: 20%) suspensions were incubated under air in the absence or presence of 2 and/or 5 mM concentration of test compounds at 37° C. for 1 hr. Following,”

Hb [2] = molecular target: T2, Hb (Homo sapiens, UniProt P68871+P69905, E7V); assay: Hb oxygen equilibrium study (P50 shift, Hemox Analyzer) on lysate of treated SS cells; assay type: cell-based; settings: intact SS cells, read-out: increase in Hb oxygen affinity (ΔP50); for percent P50 decrease (increase in Hb oxygen affinity) at 2000 µM: 2 mM compound; for percent P50 decrease (increase in Hb oxygen affinity) at 5000 µM: 5 mM compound
T2 construct: Leftover blood samples from patients with homozygous SS were obtained and utilized; from tissue; host or cells: blood (red blood cells) of patients with homozygous SS
Description: as §2, §3, §1

Hb [3] = molecular target: T2, Hb; assay: Hb adduct formation study by cation-exchange HPLC after incubation with intact SS cells; assay type: cell-based; settings: 2 mM and/or 5 mM
Description: as §1, with “To determine the binding of the MMA compounds to either α- or β-globin chains, the hemolysates were subjected to reversed-phase (RP) HPLC on a Hitachi D-7000 HSM Series, using a Jupiter 5 μm C-4 50×4.6 mm column, (Phenomenex®, Torrence, Calif.) and a gradient from 20% to 60% acetonitrile in 0.3% trifluoroacetic acid in 15 minutes, with UV detection at 215 nm.” left out

[4] = in-vivo; aldehyde protected by L-cysteine; cited from earlier work

melting point [°C] | Compound | time course of Hb oxygen affinity activity (% P50 shift) over 24 hr (Hb [1]) | globin chain bound (α- or β-globin chains) | RBC sickling (intact SS cells; 1 mM compound) [%] | RBC sickling (intact SS cells; 2 mM compound) [%] | RBC sickling (intact SS cells; 5 mM compound) [%] | percent P50 decrease (increase in Hb oxygen affinity) at 2000 µM (Hb [2]) [%] | percent P50 decrease (increase in Hb oxygen affinity) at 5000 µM (Hb [2]) [%] | Hb modification (adduct formation) (Hb [3]) | extension of Vanillin half-life [4] [fold]
49 | COC(=O)C(=O)c1ccc(OC)cc1 [MMA-201, methyl 2-(4-methoxyphenyl)-2-oxoacetate] | – | – | – | – | – | – | – | – | –
– | C=CC(=O)c1ccc(OC)cc1 [MMA-202, 1-(4-methoxyphenyl)prop-2-en-1-one] | sustained throughout the 24 hr experiment | bind to both the α-chain and β-chain | 48 | 28 | 15 | 13 | 51 | significant Hb modification | –
146 | COc1ccc(C(=O)C(N)=O)cc1 [MMA-203, 2-(4-methoxyphenyl)-2-oxoacetamide] | – | – | – | – | – | – | – | – | –
– | C#CC(=O)c1ccc(OC)cc1 [MMA-204, 1-(4-methoxyphenyl)prop-2-yn-1-one] | – | bind exclusively with the β-chain | – | 57 | 44 | 29 | 62 | – | –
– | C=CC(=O)c1ccc(OC2CCCCO2)cc1 (centres unmarked) [MMA-205, 1-(4-((tetrahydro-2H-pyran-2-yl)oxy)phenyl)prop-2-en-1-one] | – | bind exclusively with the β-chain | – | 46 | 27 | 21 | 39 | significant Hb modification | –
– | COc1cc(C2NC(C(=O)O)CS2)ccc1O (centres unmarked) [thiazolidine complex of Vanillin] | – | – | – | – | – | – | – | – | 2
– | COc1cc(C=O)ccc1O [vanillin] | – | – | – | 57 | 36 | 12 | 27 | – | –

— patent US11104632B1, “Metabolically stable vanillin derivatives for the treatment of hypoxia” (King Abdulaziz University, priority 2020, dated 2021)
